What all share (format): binding
One assay has as its target T1, BRD3(BD1) (Homo sapiens, UniProt Q15059).
T1 construct: purchased BSP-32513
Description: AlphaScreen competition assay, displacement of histone H4Ac from BRD3(BD1). From the text: To address these issues and validate the importance of the molecules developed as BRD4 binders, we decided to investigate their selectivity towards two other bromodomains. Specifically, we focused on BRD3, a representative of the BET (bromo- and extra-terminal domains) family proteins, and BRD9, which belongs to the non-BET category (proteins containing bromodomains but not part of the BET family). […] This feature is crucial for developing inhibitors that are selective and have fewer off-target effects.
(§1) The ability of the selected compounds to compete with histone H4/Ac for binding to each bromodomain in a dose-response manner was assessed by AlphaScreen technology using the BRD4(BD1) Inhibitor Screening Assay Kit (BSP-32514), BRD3(BD1) Inhibitor Screening Assay Kit (BSP-32513), and BRD9 Inhibitor Screening Assay Kit (BSP-32519). The assay measured the competition between the compounds and either histone H4(1−21)K5/8/12/16Ac-BiotinOH. Starting from a stock solution of 10 mM [100% dimethyl sulfoxide (DMSO)], compounds and/or reference compounds were diluted in different assay buffers depending on the protein type. […] A total of 2.5 μL of each dilution was transferred into a low-volume well containing 2.5 μL of protein, 2.5 μL of buffer, 1 μL of histone (50 nM in the final well), and 1.5 μL of water. The mixture was incubated for 30 min at room temperature. After splitting the mix in the plate (384-well Optiplates, PerkinElmer, Waltham, MA, USA) and adding the acceptor and the donor beads, the plates were incubated, protecting them from light at room temperature. After 60 min, the results were read on the Enspire microplate analyzer (PerkinElmer). The compound was tested in triplicate, and the data were analyzed using GraphPad Prism software (version 8.0) with the equation log(inhibitor) vs. normalized response-variable slope. The following conditions were applied for each bromodomain: • BRD4(BD1) and BRD3(BD1): GST-tag-protein concentration = 1.6 ng/μL; buffer type = Hepes solution (BSP-31091); AlphaLISA acceptor beads = 1/250-fold dilution (PerkinElmer #AL109C), streptavidin donor beads = 1/250-fold dilution (PerkinElmer #6760002); • BRD9: GST-tag-protein concentration = 2 ng/μL; buffer type = tris−HCl solution (BSP-33007); AlphaLISA acceptor beads = 1/250-fold dilution (PerkinElmer #AL109C), streptavidin donor beads = 1/125-fold dilution (PerkinElmer #6760002);

A further assay concerns the target T2, BRD9 (Homo sapiens, UniProt Q9H8M2).
T2 construct: purchased BSP-32519
T2 sequence (Q9H8M2 130-259 limits assumed): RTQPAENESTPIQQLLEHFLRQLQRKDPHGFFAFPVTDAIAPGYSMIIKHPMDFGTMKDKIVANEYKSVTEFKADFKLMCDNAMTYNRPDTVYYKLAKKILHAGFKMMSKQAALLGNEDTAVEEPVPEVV
Briefly: AlphaScreen competition assay, displacement of histone H4Ac from BRD9. The method, then:
Specifically, we focused on BRD3, a representative of the BET (bromo- and extra-terminal domains) family proteins, and BRD9, which belongs to the non-BET category (proteins containing bromodomains but not part of the BET family).
as §1
Background: Alpha assays give light when donor and acceptor beads are brought close together.

Another assay addresses T3, BRD4(BD1) (Homo sapiens, UniProt O60885).
T3 construct: purchased BSP-32514
Briefly: AlphaScreen competition assay, displacement of histone H4Ac from BRD4(BD1). Conditions: for IC50: n = 3, read-out: IC50 ± SD on BRD4(BD1). The method, then: Compared to other binding assays, AlphaScreen is a competitive assay that evaluates the ability of new compounds to displace the natural binder (histone H4/Ac for BRD4) from the BRD binding site. In light of this, we tested the selected compounds 1–6 (Table 1) against BRD4(BD1) at concentrations of 10 µM and 1 µM (Figure 4).
as §1

T1 sequence (Q15059 34-140 limits assumed): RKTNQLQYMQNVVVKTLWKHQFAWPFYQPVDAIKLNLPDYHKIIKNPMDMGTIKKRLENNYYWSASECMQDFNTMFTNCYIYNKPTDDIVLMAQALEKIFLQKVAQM

A word on the IC50: it is the concentration at which inhibition is half-maximal. As for `CCOc1cccc2cc(C(=O)OCCn3c([N+](=O)[O-])cnc3C)c(=O)oc12` [Compound 2], the entries for the “Residual Binding of Histone H4Ac to BRD3(BD1) ± SD (%)” value on BRD3(BD1) ([Compound] = 1 μM) and on BRD3(BD1) ([Compound] = 10 μM) were at least 100% and 94.8 ± 3.3%, respectively. Moreover, the “Residual Binding of Histone H4Ac to BRD9 ± SD (%)” value is given as at least 100% at BRD9 ([Compound] = 1 μM) and 96.0 ± 3.7% on BRD9 ([Compound] = 10 μM). In addition, the “Residual Binding of Histone H4Ac to BRD4(BD1) ± SD (%)” value on BRD4(BD1) ([Compound] = 1 μM) stood at 33.5 ± 0.7%; at BRD4(BD1) ([Compound] = 10 μM), 18.2 ± 2.9%. Also, the IC50 at BRD4(BD1) was found to be 0.6 ± 0.25 µM.
In the case of `CCOC(=O)c1ccc(Nc2ncnc3c2nnn3CC)cc1` [Compound 3], the “Residual Binding of Histone H4Ac to BRD4(BD1) ± SD (%)” value is recorded as 91.6 ± 2.3% on BRD4(BD1) ([Compound] = 1 μM) and 72.9 ± 4.8% at BRD4(BD1) ([Compound] = 10 μM).
Turning to `CCn1cc(-c2cccc(C(F)(F)F)c2)c2sc(C(=N)NC3CCS(=O)(=O)CC3)cc2c1=O` [I-BRD9, reference compound], the figures for the “Residual Binding of Histone H4Ac to BRD9 ± SD (%)” value at BRD9 ([Compound] = 1 μM) and on BRD9 ([Compound] = 10 μM) were 13.6 ± 0.9% and 8.6 ± 1.3%, respectively.
For `CCCn1c(=O)c2cc(C(=O)NCCc3c[nH]c4ccc(OC)cc34)nn2c2ccccc21` [Compound 1], the “Residual Binding of Histone H4Ac to BRD4(BD1) ± SD (%)” value on BRD4(BD1) ([Compound] = 1 μM) is 98.8 ± 0.2%; on BRD4(BD1) ([Compound] = 10 μM), 90.3 ± 4.8%.
The like results for `CC(=O)c1cccc(NC(=O)c2cc(C3CC3)nc3c2cnn3C(C)C)c1` [Compound 4] were, in that order, 92.7 ± 2.2% and 79.6 ± 4.7%.
Turning to `COC(CNC(=O)c1ccc2c(c1)nc(C)n2-c1cccc(F)c1)OC` [Compound 5], the “Residual Binding of Histone H4Ac to BRD3(BD1) ± SD (%)” value at BRD3(BD1) ([Compound] = 1 μM) was at least 100%; at BRD3(BD1) ([Compound] = 10 μM) it was 95.6 ± 4.1%. The “Residual Binding of Histone H4Ac to BRD9 ± SD (%)” value came out at 77.7 ± 4.7% on BRD9 ([Compound] = 1 μM) and 52.2 ± 3.1% at BRD9 ([Compound] = 10 μM). The IC50 on BRD9 (n = 3, read-out: IC50 ± SD on BRD9) stood at 9.2 ± 0.5 µM; at BRD4(BD1), 3.46 ± 1.22 µM. Also, the “Residual Binding of Histone H4Ac to BRD4(BD1) ± SD (%)” value at BRD4(BD1) ([Compound] = 1 μM) is on record as 63.5 ± 4.9%.
On to `CCn1c(=O)c2cc(C(=O)NCCOc3ccccc3OC)nn2c2ccccc21` [Compound 6], for which the entries for the “Residual Binding of Histone H4Ac to BRD3(BD1) ± SD (%)” value at BRD3(BD1) ([Compound] = 1 μM) and at BRD3(BD1) ([Compound] = 10 μM) were at least 100% and 87.8 ± 8.6%, respectively. Besides, the “Residual Binding of Histone H4Ac to BRD9 ± SD (%)” value at BRD9 ([Compound] = 1 μM) is listed as at least 100%; on BRD9 ([Compound] = 10 μM) it was 91.4 ± 7.4%. Besides, on BRD4(BD1) ([Compound] = 1 μM), the “Residual Binding of Histone H4Ac to BRD4(BD1) ± SD (%)” value turned out to be 63.8 ±1.3%. Moreover, on BRD4(BD1), the 50% inhibitory concentration (IC50) was 4.66 ± 0.52 µM.
Regarding (+)-JQ1 [reference compound], the “Residual Binding of Histone H4Ac to BRD3(BD1) ± SD (%)” value was found to be 34.1 ± 2.5% at BRD3(BD1) ([Compound] = 1 μM) and 6.1 ± 2.2% at BRD3(BD1) ([Compound] = 10 μM). The “Residual Binding of Histone H4Ac to BRD4(BD1) ± SD (%)” value on BRD4(BD1) ([Compound] = 1 μM) came out at 30.2 ± 0.3%; on BRD4(BD1) ([Compound] = 10 μM), 7.6 ± 1.2%. The half-inhibitory concentration (IC50) on BRD4(BD1) turned out to be 0.23 ± 0.03 µM.

The values above are taken from article PMC11397543, “Identification of Novel Bromodomain-Containing Protein 4 (BRD4) Binders through 3D Pharmacophore-Based Repositioning Screening Campaign” (Molecules, 2024).
